Tests used:
[1] = target: T1, recombinant human MEK 1 (MAPKK) and recombinant human ERK2 (MAPK) (Homo sapiens, UniProt P28482+Q02750); test: Mitogen Activated Protein Kinase (MAPK) coupled Mek-Erk test procedure; type: biochemical
T1 construct: GST
Experimental: To evaluate inhibitors of the MAP (mitogen activated protein) kinase a two component coupled standard pharmacological test procedure, which measures phosphorylation of a serine/threonine residue in an appropriate sequence in the substrate in the presence and absence of a putative inhibitor, is used. Recombinant human MEK 1 (MAPKK) is first used to activate recombinant human ERK2 (MAPK) and the activated MAPK (ERK) is incubated with substrate (myelin basic protein peptide (MBPP) or Myc peptide) in the presence of ATP, Mg^+2 and radiolabeled ^33P ATP. The phosphorylated peptide is captured on a P 81 phosphocellulose filter (paper filter or embedded in microtiter plate) washed and counted by scintillation methods.
The peptide substrates used in the assay are MBPP, peptide substrate ([…]), or synthetic Myc substrate, ([…].5 TFA). The recombinant enzymes used are prepared as GST fusion proteins of human ERK 2 and human MEK 1. Inhibitor samples are prepared as 10× stocks in 10% DMSO and an appropriate aliquot is used to deliver either 10 ug/ml for a single point screening dose or 100 to 0.0001 uM final concentration for a dose response curve. Final DMSO concentrations are less than or equal to 1%.
The reaction is run as follows in 50 mM Tris kinase buffer, pH 7.4 in a reaction volume of 50 ul. The appropriate volume of kinase buffer and inhibitor sample is added to the tube. Appropriate dilution of enzyme is delivered to give 2–5 ug recombinant MAPK (Erk) per tube. The inhibitor is incubated with MAPK (Erk) for 30 min at 0 deg. C. Recombinant Mek (MAPKK) (0.5–2.5 ug) or fully activated Mek (0.05–0.1 units) is added to activate the Erk and incubated for 30 min at 30° C. Then substrate and γ^33P ATP are added to give a final concentration of 0.5–1 mM MBPP or 250–500 uM Myc; 0.2–0.5 uCi gamma P 33 ATP/tube; 50 μM ATP final concentration. Samples are incubated at 30° C. for 30 minutes and the reaction is stopped by adding 25 μl of ice cold 10% trichloroacetic acid (TCA). After samples are chilled on ice for 30 min. 20 μl of sample is transferred onto P 81 phosphocellulose filter. Filter papers are washed 2 times with a large volume of 1% acetic acid, then 2 times with water. The filters are briefly air dried before addition of scintillant and samples are counted in the appropriate scintillation counter set up for reading ^33P isotope. Samples include a positive control (activated enzyme plus substrate); a no enzyme control; a no substrate control; samples with different concentrations of putative inhibitor, and samples with reference inhibitors (other active compounds or non-specific inhibitors such as staurosporine or K252 B).
The raw data is captured as cpm. Sample replicates are averaged and corrected for background count. Mean cpm data is tabulated by group and % inhibition by a test compound is calculated as (corrected cpm control−corrected. cpm sample/control)×100=% inhibition).

[2] = system: HT-29 cells; test: Cell proliferation test procedure, HT-29 cells; type: cell-based; conditions: Homo sapiens, read-out: HT-29 prolif IC50
Experimental: HT-29 cells: Compound effectiveness at inhibiting cell proliferation on plastic is performed in a 96-well format by plating 5000 cells per well in appropriate medium on day one, followed by compound addition on day 2 in serial two-fold dilutions. On day five, compound is washed away and medium containing MTS reagent (Promega) is added. Relative cell number is determined by reading the absorbance at 490 nm of a dye produced by an NAD-dependent cellular enzymatic reaction.

[3] = target: T2, Rat2 fibroblasts transformed with v-Src/Hu c-Src fusion gene (Homo sapiens, UniProt P12931, cells depend on it, form not given); test: Anchorage independent Src-transformed fibroblast proliferation test procedure; type: cell-based, rat; conditions: for Src TF prolif % Inh: @ dose 10 μM
T2 construct: fused on or other part: The v-Src frame of Rous sarcoma virus: everything outside the catalytic domain, namely the N-terminal unique/SH3/SH2 part; Candidates are Prague C (P00526), then Schmidt-Ruppin A (P00524)
T2 sequence (P12931 whole entry, change not shown, the tested form may be a part): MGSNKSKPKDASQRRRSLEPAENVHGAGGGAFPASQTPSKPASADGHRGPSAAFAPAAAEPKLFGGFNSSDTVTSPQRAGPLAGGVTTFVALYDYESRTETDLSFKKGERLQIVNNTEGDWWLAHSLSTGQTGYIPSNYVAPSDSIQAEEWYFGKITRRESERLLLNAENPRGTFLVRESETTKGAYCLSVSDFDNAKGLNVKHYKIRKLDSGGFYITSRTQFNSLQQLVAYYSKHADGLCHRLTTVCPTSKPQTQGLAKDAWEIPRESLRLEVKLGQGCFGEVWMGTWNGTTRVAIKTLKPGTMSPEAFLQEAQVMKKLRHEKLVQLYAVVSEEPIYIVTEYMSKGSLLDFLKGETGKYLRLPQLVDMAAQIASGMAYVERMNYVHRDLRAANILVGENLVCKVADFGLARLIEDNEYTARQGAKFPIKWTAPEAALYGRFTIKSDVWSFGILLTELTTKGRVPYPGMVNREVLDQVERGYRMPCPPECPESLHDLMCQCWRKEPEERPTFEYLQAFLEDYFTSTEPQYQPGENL
Text: Anchorage Independent Src-transformed Fibroblast Proliferation Test Procedure: Rat2 fibroblasts stably transformed with a plasmid containing CMV promotor controlled v-Src/Hu c-Src fusion gene in which the catalytic domain of human c-Src is inserted in place of the v-Src catalytic domain in the v-Src gene are used for the measurement of src dependent suspension growth.

[4] = target: T3, p60^c-src (Src) (Homo sapiens, UniProt P12931); test: Src kinase test procedure (Elisa format); type: biochemical
T3 construct: purchased Upstate Biotechnologies
T3 sequence (P12931 whole entry, species assumed): as the sequence (P12931 whole entry, change not shown, the tested form may be a part) above
Experimental: Inhibitors of p60^c-src (partially purified preparation purchased from Upstate Biotechnologies) tyrosine kinase activity are analyzed in an Elisa format. […] HRP-conjugated anti-phosphotyrosine is used to detect phosphorylated peptide via a color reaction. Conditions recommended by the manufacturer are employed.
The reaction mixture with the phosphorylated peptide is then transferred to a streptavidin-coated microtiter plate (provided in the kit) and allowed to bind for 20 minutes. Unbound peptide and reaction mixture is decanted and the plate is washed with PBS six times. Horseradish peroxidase-conjugated phosphotyrosine antibody supplied in the kit is incubated with the plate for one hour, then decanted. The plate is again washed with PBS six times.

Q: For `N#Cc1cnc2c(sc3ccccc32)c1Nc1ccc(Oc2ccccc2)cc1` [Example 69, 4-(4-Phenoxyphenylamino)benzo[4,5]thieno[3,2-b]pyridine-3-carbonitrile], which “Mek-Erk IC50” value [1] is on record?
A: 3000 nM

Q: And the melting point?
A: 230 to 233 °C

Q: For `COc1cc(Nc2c(C#N)cnc3cc4cc(OCCN5CCN(C)CC5)c(OC)cc4cc23)c(C)cc1Cl` [Example 133, 4-(4-chloro-5-methoxy-2-methylanilino)-7-methoxy-8-[2-(4-methyl 1-piperazinyl)ethoxy]benzo[g]quinoline-3-carbonitrile], which IC50 [2] is on record?
A: 8600 nM

Q: Which results are given for `COc1ccc(Cl)c(Nc2c(C#N)cnc3c2C=C2N=CN=C2C3)c1` [Example 40, 8-(2-Chloro-5-methoxy-phenylamino)imidazo[4,5-g]quinoline-7-carbonitrile]?
A: Mek-Erk IC50 [1]: 500 nM; melting point: 296 to 298 °C; Src TF prolif % Inh [3]: 0%

Q: For `COc1cc(Nc2c(C#N)cnc3c2C=C2N=CN=C2C3)c(Br)cc1Cl` [Example 39, 8-(2-Bromo-4-chloro-5-methoxyphenylamino)imidazo[4,5-g]quinoline-7-carbonitrile], which “Mek-Erk IC50” value [1] is on record?
A: 1300 nM

Q: And the melting point?
A: 257 °C (dec.)

Q: And the “Src TF prolif % Inh” value [3]?
A: 25%

Q: For `COc1cc(Nc2c(C#N)cnc3cc4cc(OCCN5CCOCC5)c(OC)cc4cc23)c(Cl)cc1C` [Example 216, 4-(2-Chloro-5-methoxy-4-methylphenylamino)-7-methoxy-8-(2-morpholin-4-yl-ethoxy)benzo[g]quinoline-3-carbonitrile], which melting point is on record?
A: 220 to 222 °C

Q: And the IC50 [2]?
A: 9950 nM

Q: Which results are given for `N#Cc1cnc2c(c1Nc1ccc(Cl)cc1Br)C=C1N=CN=C1C2` [Example 38, 8-(2-Bromo-4-chlorophenylamino)imidazo[4,5-g]quinoline-7-carbonitrile]?
A: Mek-Erk IC50 [1]: 1300 nM; melting point: 244 to 246 °C; Src TF prolif % Inh [3]: 0%

Q: For `N#Cc1cnc2c(c1Nc1ccc(Oc3ccccc3)cc1)C=C1N=CN=C1C2` [Example 44, 8-(4-Phenoxyanilino)imidazo[4,5-g]quinoline-7-carbonitrile], which “Mek-Erk IC50” value [1] is on record?
A: 30 nM

Q: What about the melting point of the same compound?
A: > 270 °C

Q: Which “Src % Inh” value ([4]; dose 10 μM) does the source give for `COc1cc(Nc2c(C#N)cnc3c2sc2ccc([N+](=O)[O-])cc23)c(C)cc1Cl` [Example 75] here?
A: 0%

Q: Which GI50 ([3]; rat2 fibroblasts transformed with v-src/hu c-src fusion gene, read-out: Src TF prolif IC50) does the source give for `COc1cc(Nc2c(C#N)cnc3cc4cc(OCCN5CCN(C)CC5)c(OC)cc4cc23)c(Cl)cc1C` [Example 203] here?
A: 71 nM

Q: What about the IC50 [4] of the same compound?
A: 4.2 nM

Q: Which results are given for `N#Cc1cnc2cc3ccccc3cc2c1Nc1ccc(Oc2ccccc2)cc1` [Example 3, 4-(4-Phenoxyanilino)benzo[g]quinoline-3-carbonitrile]?
A: Mek-Erk IC50 [1]: 200 nM; melting point: 250 to 251 °C

Reference: patent publication US7105531B2, “Tricyclic protein kinase inhibitors” (WYETH, priority 1999, dated 2006)
